Measured values published in ChEMBL document CHEMBL1773053, “Immunosuppressive but non-LasR-inducing analogues of the Pseudomonas aeruginosa quorum-sensing molecule N-(3-oxododecanoyl)-l-homoserine lactone” (J Med Chem, 2011).

Key:
[1] = molecular target: T1, Transcriptional activator protein LasR (Pseudomonas aeruginosa (strain ATCC 15692 / PAO1 / 1C / PRS 101 / LMG12228)) (UniProt P25084); assay: Inhibition of OdDHL-induced LasR activation in Pseudomonas aeruginosa PAKR02 harboring lasB::luxCDABE gene assessed as remaining Las activity at 10^-4 M after 24 hrs by bioluminescence assay
T1 sequence (whole entry): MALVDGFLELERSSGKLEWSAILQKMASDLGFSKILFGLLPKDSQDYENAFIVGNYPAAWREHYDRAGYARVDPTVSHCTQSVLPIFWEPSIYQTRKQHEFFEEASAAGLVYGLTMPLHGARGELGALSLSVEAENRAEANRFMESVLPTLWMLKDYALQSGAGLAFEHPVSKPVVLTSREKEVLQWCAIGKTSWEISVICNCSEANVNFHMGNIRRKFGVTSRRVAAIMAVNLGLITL

Jurkat = assay: Cytotoxicity against human Jurkat E6-1 cells assessed as cell viability after 24 hrs by trypan blue exclusion assay; format: cell-based; conditions: for EC50: Homo sapiens, Jurkat; for Activity: human, jurkat
[2] = molecular target: T1, Transcriptional activator protein LasR (Pseudomonas aeruginosa (strain ATCC 15692 / PAO1 / 1C / PRS 101 / LMG12228)); assay: Induction of lasR-mediated quorum sensing in Pseudomonas aeruginosa PAKR02 harboring lasB::luxCDABE gene assessed as lasR-induction ratio at 10^-4 M after 24 hrs by bioluminescence assay relative to control
[3] = Immunosuppressive activity in mouse concanavalin A-stimulated peripheral blood leukocyte assessed as inhibition of leukocyte proliferation by [3H]thymidine incorporation assay; format: functional

| Structure (SMILES) | Activity [1] | EC50 (Jurkat) | Ratio [2] | EC50 [3] | Activity (Jurkat) |
| --- | --- | --- | --- | --- | --- |
| CCCCCCCCNC(=O)CC(=O)NC1CCCCCC1 | 19% | 78 µM | 0.9 | 14 µM | – |
| CCCCCCCCCCC[S+]([O-])CC(=O)N[C@H]1CCOC1=O (some centres undefined) | 63% | 45 µM | 0.77 | 8.2 µM | – |
| CCCCCCCCNC(=O)CC(=O)Nc1ccccc1C(=O)N(C)C | 37% | 160 µM | 0.91 | 22 µM | – |
| CCCCCCCCNC(=O)CS(=O)(=O)N[C@H]1CCOC1=O | 86% | 220 µM | 1.04 | 9.1 µM | – |
| CCCCCCCCCC(CC(=O)N[C@H]1CCOC1=O)OC(C)=O (mixture of isomers) | 70% | 120 µM | 1.13 | 5.2 µM | – |
| CCCCCCCCN(CCO)C(=O)CC(=O)N[C@H]1CCOC1=O | 16% | 300 µM | 1.01 | 41 µM | – |
| CCCCCCCCCC(=O)CC(=O)N[C@H]1CC(=O)NC1=O | 82% | – | 1.04 | > 1000 µM | Non-toxic |
| CCCCCCCCCN(CC(=O)N[C@H]1CCOC1=O)OCc1ccccc1 | – | 63 µM | – | 17 µM | – |
| CCCCCCCCCN(N)CC(=O)N[C@H]1CCOC1=O | 55% | 410 µM | 1.03 | 8.9 µM | – |
| CCCCCCCCNC(=O)CC(=O)N[C@@H]1CCC[C@@H]1O | 55% | 400 µM | 0.96 | 43 µM | – |
| CCCCCCCCNC(=O)C(F)(F)C(=O)N[C@H]1CCOC1=O | 6% | > 1000 µM | – | 97 µM | – |
| CCCCCCCCNC(=O)C(F)C(=O)N[C@H]1CCOC1=O (some centres undefined) | 57% | 800 µM | 0.91 | 26 µM | – |
| CCCCCCCCCC(=O)CC(=O)N[C@H]1CCC(=O)NC1=O | 71% | – | 1.03 | 77 µM | Non-toxic |
| CCCCCCCCCCCS(=O)(=O)CC(=O)N[C@H]1CCOC1=O | 76% | 170 µM | 0.75 | 8.3 µM | – |
| CCCCCCCCNC(=O)CC(=O)Nc1ccc2[nH]ncc2c1 | 62% | > 1000 µM | 1.1 | 55 µM | – |
| CCCCCCCCNC(=O)CC(=O)Nc1cc(Cl)ccc1O | 66% | > 1000 µM | 0.62 | 9.3 µM | – |
| CCCCCCCCN(CCC)C(=O)CC(=O)N[C@H]1CCOC1=O | 101% | 200 µM | 0.99 | 28 µM | – |
| CCCCCCCCNC(=O)CC(=O)Nc1ccccc1O | 29% | > 1000 µM | 0.79 | 22 µM | – |
| CCCCCCCCC/C(O)=C1/C(=O)N[C@@H](CCO)C1=O | 21% | 52 µM | 0.96 | 29 µM | – |
| CCCCCCCCCSCC(=O)N[C@H]1CCOC1=O | 51% | > 1000 µM | 0.9 | > 1000 µM | – |

| Structure (SMILES) | Activity [1] | EC50 (Jurkat) | Ratio [2] | EC50 [3] | Activity (Jurkat) |
| --- | --- | --- | --- | --- | --- |
| CCCCCCCCNC(=O)CC(=O)N[C@H]1CCOC1=O | 20% | 200 µM | 1.06 | 35 µM | – |
| CCCCCCCCCNC(=O)CC(=O)N[C@H]1CCOC1=O | 3.4% | 530 µM | 1.01 | 23 µM | – |
| CCCCCCCCC[S+]([O-])CC(=O)N[C@H]1CCOC1=O (some centres undefined) | – | 720 µM | – | 27 µM | – |
| CCCCCCCCCN(O)CC(=O)N[C@H]1CCOC1=O | 69% | 400 µM | 0.99 | 13 µM | – |
| CCCCCCCCNC(=O)CC(=O)Nc1ccccc1C(N)=O | 23% | 120 µM | 0.8 | 25 µM | – |
| CCCCCCCCCS(=O)(=O)CC(=O)N[C@H]1CCOC1=O | 72% | 200 µM | 0.92 | 31 µM | – |
| CCCCCCCCNC(=O)CC(=O)Nc1ccccn1 | 41% | > 1000 µM | 0.91 | 18 µM | – |
| CCCCCCCCCCCNC(=O)CC(=O)N[C@H]1CCOC1=O | 14% | 140 µM | 0.72 | 12 µM | – |
| CCCCCCCCNC(=O)CC(=O)Nc1cccc(C(N)=O)c1 | 59% | 700 µM | 0.81 | 15 µM | – |
| CCCCOCCCNC(=O)CC(=O)N[C@@H]1CCC[C@@H]1O | 111% | > 1000 µM | 0.94 | 160 µM | – |
| CCCCCCCCCC(=O)CC(=O)Nc1nccs1 | 51% | 800 µM | 0.87 | 25 µM | – |
| CCCCCCCCNC(=O)CC(=O)Nc1nccs1 | 64% | 600 µM | 0.9 | 27 µM | – |
| CCCCCCCCN(C)C(=O)CC(=O)N[C@H]1CCOC1=O | 60% | > 1000 µM | 0.91 | 22 µM | – |
| CCOCCOCCNC(=O)CC(=O)N[C@H]1CCOC1=O | 61% | > 1000 µM | 1.02 | > 1000 µM | – |
| CCCCCCCCOC(=O)CC(=O)N[C@H]1CCOC1=O | 46% | 500 µM | 1.18 | 37 µM | – |
| CCOCCOCCNC(=O)CC(=O)N[C@@H]1CCC[C@@H]1O | 89% | 700 µM | 1.03 | 192 µM | – |
| CCCCCCCCCC(=O)CC(=O)N[C@H]1CCOC1=O | – | 250 µM | 12.3 | 21 µM | – |
| CCCCOCCCNC(=O)CC(=O)N[C@H]1CCOC1=O | 108% | > 1000 µM | 0.97 | 101 µM | – |
| CCCCCCCCNS(=O)(=O)CC(=O)N[C@H]1CCOC1=O | 101% | 900 µM | 1.02 | 13 µM | – |
| CCCCCCCCNC(=O)CC(=O)N[C@@H]1CCCC[C@@H]1O | 45% | 400 µM | 0.92 | 32 µM | – |
